Test results as given in patent publication US20240360122A1, “POLYMORPHIC FORMS AND SALTS OF A GLP-1R AGONIST” (Terns (Suzhou) Biotechnology Co., Ltd., priority 2023, published 2024).

How the values were obtained:
Type in all cases: physicochemical
[1] = Approximate solubility in different solvents at RT
Protocol: For each experiment, approximately 2 mg of sample was added into a 3-mL glass vial. Corresponding solvents were then added stepwise (50/50/200/700/1000 μL) into the vials until the solids were dissolved visually or a total volume of 2 mL was reached. Solubility results summarized in Table 64 to Table 66 were used to guide the solvent selection in polymorph screening design.

[2] = Solid state stability at 25° C./60% RH and 40° C./75% RH for 1 week; settings: for HPLC peak Area, RRT 1.00: main peak
Protocol: Each sample was added into a glass vial, sealed by parafilm with several holes, and kept under tested conditions. After one week, samples were taken for XRPD and HPLC purity test.

[3] = Hygroscopicity by DVS at 25° C.
Protocol: DVS was measured via a SMS (Surface Measurement Systems) DVS Intrinsic. The relative humidity at 25° C. were calibrated against deliquescence point of LiCl, Mg(NO3)2 and KCl.

[4] = Kinetic solubility in water and bio-relevant media (SGF, FaSSIF, FeSSIF) at 37° C.; settings: for FC: Form change: residual solids by XRPD
Protocol: Add 4 mL of medium (H2O, SGF, FaSSIF and FeSSIF). • Rolled at 37° C. (˜25 rpm). Sampling at 1, 2, 4 and 24 hrs. • At each time-point, sampled 0.8 mL of solution or suspension into a centrifuge tube prior to centrifugation (12000 rpm, 37° C., 5 min) and filtration through 0.45 μm PTFE membrane. • Tested pH and concentration for the filtrate. Analyze residual solids by XRPD.
0.1 g of NaCl and 0.05 g of Triton X-100 were weighed into a 50-mL volumetric flask. Purified water was added to dissolve the solid. 67.5 μL HCl (38%, 12M) was added after the solid was dissolved completely. pH was then adjusted to 1.8 using HCl (1 M) or NaOH (1 M). Purified water was added to the volume.
0.17 g of anhydrous NaH2PO4, 0.021 g of NaOH and 0.31 g of NaCl were weighed into a 50-mL volumetric flask. ˜48 mL purified water was added to dissolve the solid. pH was adjusted to 6.5 using 1M HCl or 1M NaOH. Purified water was then added to the volume. 0.11 g of SIF powder was added into the volumetric flask.
0.41 mL of acetic acid, 0.20 g of NaOH and 0.59 g of NaCl were weighed into a 50-mL volumetric flask. ˜48 mL purified water was added to dissolve the solid. pH was adjusted to 5.0 using 1M HCl or 1M NaOH. Purified water was then added to the volume. 0.56 g of SIF powder was added into the volumetric flask.

**Q.** Which Approximate solubility ([1]; 1,4-Dioxane, RT) does the source give for `N#Cc1ccc(COc2cccc(C3CCN(Cc4nc5ccc(C(=O)O)cc5n4Cc4cncs4)CC3)n2)c(F)c1` [Freeform Type D] here?
**A.** Its Approximate solubility is “S < 1.1 mg/mL”.

**Q.** And the Approximate solubility ([1]; 2-MeTHF, RT)?
**A.** The Approximate solubility was “S < 1.0 mg/mL”.

**Q.** And the Approximate solubility ([1]; Anisole, RT)?
**A.** The Approximate solubility was “S < 1.0 mg/mL”.

**Q.** And the Approximate solubility ([1]; CHCl3, RT)?
**A.** Its Approximate solubility is “S < 1.1 mg/mL”.

**Q.** What about the Approximate solubility ([1]; CPME, RT) of the same compound?
**A.** The Approximate solubility was “S < 0.9 mg/mL”.

**Q.** What about the Approximate solubility ([1]; DMSO, RT) of the same compound?
**A.** The Approximate solubility was “S > 44.0 mg/mL”.

**Q.** And the Approximate solubility ([1]; H2O, RT)?
**A.** Its Approximate solubility is “S < 1.1 mg/mL”.

**Q.** What about the Approximate solubility ([1]; IPA, RT) of the same compound?
**A.** Its Approximate solubility is “S < 1.1 mg/mL”.

**Q.** And the Approximate solubility ([1]; MTBE, RT)?
**A.** The Approximate solubility was “S < 1.1 mg/mL”.

**Q.** And the Approximate solubility ([1]; Toluene, RT)?
**A.** The Approximate solubility was “S < 1.0 mg/mL”.

**Q.** What about the Approximate solubility ([1]; n-Heptane, RT) of the same compound?
**A.** Its Approximate solubility is “S < 1.0 mg/mL”.

**Q.** With `N#Cc1ccc(COc2cccc(C3CCN(Cc4nc5ccc(C(=O)O)cc5n4Cc4cncs4)CC3)n2)c(F)c1` [Fumarate Type A] as the compound, how does the “HPLC peak Area, RRT 0.73” value ([2]; 25° C./60% RH, 1 week) read?
**A.** The value was 0.14%.

**Q.** What about the “HPLC peak Area, RRT 0.80” value ([2]; 25° C./60% RH, 1 week) of the same compound?
**A.** Its value is 0.05%.

**Q.** What about the “HPLC peak Area, RRT 0.83” value ([2]; 25° C./60% RH, 1 week) of the same compound?
**A.** The value was 1.98%.

**Q.** What about the “HPLC peak Area, RRT 0.90” value ([2]; 25° C./60% RH, 1 week) of the same compound?
**A.** The value was 0.10%.

**Q.** And the “HPLC peak Area, RRT 0.99” value ([2]; 25° C./60% RH, 1 week)?
**A.** The value was 0.06%.

**Q.** And the “HPLC peak Area, RRT 1.05” value ([2]; 25° C./60% RH, 1 week)?
**A.** The value was 0.28%.

**Q.** What about the “HPLC peak Area, RRT 1.10” value ([2]; 25° C./60% RH, 1 week) of the same compound?
**A.** Its value is 0.89%.

**Q.** What about the “HPLC peak Area, RRT 1.12” value ([2]; 25° C./60% RH, 1 week) of the same compound?
**A.** The value was 0.06%.

**Q.** What about the “HPLC peak Area, RRT 1.15” value ([2]; 25° C./60% RH, 1 week) of the same compound?
**A.** The value was 0.25%.

**Q.** And the “HPLC peak Area, RRT 1.34” value ([2]; 25° C./60% RH, 1 week)?
**A.** Its value is 0.07%.

**Q.** And the “HPLC peak Area, RRT 1.00” value ([2]; 25° C./60% RH, 1 week)?
**A.** Its value is 96.13%.

**Q.** And the Form change ([2]; 25° C./60% RH/Open/1 week)?
**A.** The Form change was “No”.

**Q.** And the Purity ([2]; 25° C./60% RH/Open/1 week)?
**A.** The Purity was 96.13 Area %.

**Q.** And the “solid-state stability: form change and purity decrease” value ([2]; 25° C./60% RH/open and 40° C./75% RH/open, 1 week)?
**A.** The value was “no form change or significant purity decrease”.

**Q.** What about the “HPLC peak Area, RRT 0.73” value ([2]; 40° C./75% RH, 1 week) of the same compound?
**A.** Its value is 0.13%.

**Q.** And the “HPLC peak Area, RRT 0.80” value ([2]; 40° C./75% RH, 1 week)?
**A.** The value was under 0.05%.

**Q.** What about the “HPLC peak Area, RRT 0.83” value ([2]; 40° C./75% RH, 1 week) of the same compound?
**A.** The value was 1.89%.

**Q.** And the “HPLC peak Area, RRT 0.90” value ([2]; 40° C./75% RH, 1 week)?
**A.** Its value is 0.09%.

**Q.** What about the “HPLC peak Area, RRT 0.99” value ([2]; 40° C./75% RH, 1 week) of the same compound?
**A.** The value was under 0.05%.

**Q.** And the “HPLC peak Area, RRT 1.05” value ([2]; 40° C./75% RH, 1 week)?
**A.** The value was 0.29%.

**Q.** What about the “HPLC peak Area, RRT 1.10” value ([2]; 40° C./75% RH, 1 week) of the same compound?
**A.** Its value is 0.87%.

**Q.** What about the “HPLC peak Area, RRT 1.12” value ([2]; 40° C./75% RH, 1 week) of the same compound?
**A.** The value was 0.05%.

**Q.** What about the “HPLC peak Area, RRT 1.15” value ([2]; 40° C./75% RH, 1 week) of the same compound?
**A.** Its value is 0.26%.

**Q.** What about the “HPLC peak Area, RRT 1.34” value ([2]; 40° C./75% RH, 1 week) of the same compound?
**A.** The value was 0.06%.

**Q.** What about the “HPLC peak Area, RRT 1.00” value ([2]; 40° C./75% RH, 1 week) of the same compound?
**A.** The value was 96.37%.

**Q.** What about the Form change ([2]; 40° C./75% RH/Open/1 week) of the same compound?
**A.** Its Form change is “No”.

**Q.** What about the Purity ([2]; 40° C./75% RH/Open/1 week) of the same compound?
**A.** The Purity was 96.37 Area %.

**Q.** What about the “HPLC peak Area, RRT 0.73” value ([2]; Initial) of the same compound?
**A.** Its value is 0.13%.

**Q.** And the “HPLC peak Area, RRT 0.80” value ([2]; Initial)?
**A.** The value was under 0.05%.

**Q.** What about the “HPLC peak Area, RRT 0.83” value ([2]; Initial) of the same compound?
**A.** The value was 1.91%.

**Q.** What about the “HPLC peak Area, RRT 0.90” value ([2]; Initial) of the same compound?
**A.** The value was 0.09%.

**Q.** What about the “HPLC peak Area, RRT 0.99” value ([2]; Initial) of the same compound?
**A.** The value was under 0.05%.

**Q.** And the “HPLC peak Area, RRT 1.05” value ([2]; Initial)?
**A.** The value was 0.27%.

**Q.** What about the “HPLC peak Area, RRT 1.10” value ([2]; Initial) of the same compound?
**A.** Its value is 0.87%.

**Q.** And the “HPLC peak Area, RRT 1.12” value ([2]; Initial)?
**A.** The value was 0.05%.

**Q.** What about the “HPLC peak Area, RRT 1.15” value ([2]; Initial) of the same compound?
**A.** Its value is 0.24%.

**Q.** What about the “HPLC peak Area, RRT 1.34” value ([2]; Initial) of the same compound?
**A.** Its value is 0.06%.

**Q.** What about the Purity ([2]; Initial) of the same compound?
**A.** The Purity was 96.37 Area %.

**Q.** What about the “HPLC peak Area, RRT 1.00” value ([2]; Initial) of the same compound?
**A.** Its value is 96.37%.

**Q.** What about the “water uptake (DVS)” value ([3]; 25° C./80% RH) of the same compound?
**A.** Its value is 0.12%.

**Q.** What about the hygroscopicity ([3]; DVS, 25° C.) of the same compound?
**A.** Its hygroscopicity is “non-hygroscopic”.

**Q.** What about the “Water uptake at 25° C./80% RH” value ([3]; DVS, 25° C./80% RH) of the same compound?
**A.** Its value is 0.12 wt %.

**Q.** And the “For change after DVS” value ([3]; XRPD after DVS test)?
**A.** Its value is “No”.

**Q.** What about the “form change after DVS test (XRPD)” value ([3]; after DVS test) of the same compound?
**A.** Its value is “no form change”.

**Q.** And the “FC: Form change” value ([4]; FaSSIF, 37° C., 1 hr)?
**A.** Its value is “No”.

**Q.** What about the “FC: Form change” value ([4]; FaSSIF, 37° C., 2 hrs) of the same compound?
**A.** Its value is “No”.

**Q.** And the “FC: Form change” value ([4]; FaSSIF, 37° C., 4 hrs)?
**A.** The value was “No”.

**Q.** What about the “FC: Form change” value ([4]; FaSSIF, 37° C., 24 hrs) of the same compound?
**A.** The value was “No”.

**Q.** And the “FC: Form change” value ([4]; FeSSIF, 37° C., 1 hr)?
**A.** The value was “No”.

**Q.** What about the “FC: Form change” value ([4]; FeSSIF, 37° C., 2 hrs) of the same compound?
**A.** The value was “No”.

**Q.** And the “FC: Form change” value ([4]; FeSSIF, 37° C., 4 hrs)?
**A.** The value was “No”.

**Q.** What about the “FC: Form change” value ([4]; FeSSIF, 37° C., 24 hrs) of the same compound?
**A.** Its value is “No”.

**Q.** And the “FC: Form change” value ([4]; H2O, 37° C., 1 hr)?
**A.** The value was “No”.

**Q.** What about the “FC: Form change” value ([4]; H2O, 37° C., 2 hrs) of the same compound?
**A.** The value was “No”.

**Q.** And the “FC: Form change” value ([4]; H2O, 37° C., 4 hrs)?
**A.** Its value is “No”.

**Q.** And the “FC: Form change” value ([4]; H2O, 37° C., 24 hrs)?
**A.** The value was “No”.

**Q.** What about the “FC: Form change” value ([4]; SGF, 37° C., 1 hr) of the same compound?
**A.** Its value is “No”.

**Q.** And the “FC: Form change” value ([4]; SGF, 37° C., 2 hrs)?
**A.** Its value is “No”.

**Q.** What about the “FC: Form change” value ([4]; SGF, 37° C., 4 hrs) of the same compound?
**A.** Its value is “No”.

**Q.** What about the “FC: Form change” value ([4]; SGF, 37° C., 24 hrs) of the same compound?
**A.** Its value is “No”.

**Q.** And the “form change of residual solids (XRPD) after solubility test” value ([4]; all the media (H2O, SGF, FaSSIF, FeSSIF), after 24 hrs)?
**A.** The value was “No form change”.

**Q.** And the “solubility compared with the other selected salts” value ([4]; all the media, 37° C.)?
**A.** The value was “lowest solubility”.
